Where “and” joins values, the source holds several entries; their conditions need not be identical. Equal values may be shown once. Marks after values point to notes of the source that are not given here.

Type in all cases: biochemical
One experiment has as its system rat liver homogenate. Nature of the experiment: Indigoid-dye formation in rat liver homogenate. The conditions noted are these: indoxyl 1 mM, 5% DMF, 37° C., 24 h; ε = 1.27 × 10^4 M^-1 cm^-1. On the procedure:
Finally, indigoid-dye formation was carried out in rat liver homogenate (Table 1, rightmost column).
Reactions in rat liver homogenate. An indoxyl compound in DMF (5 μL, 20 mM) was mixed with rat liver homogenate (95 μL). The reaction mixture was incubated at 37° C. for 24 h. After allowing to cool to room temperature, the reaction mixture was diluted with DMF (900 μL). The mixture was heated at 70° C. for 2 min and then centrifuged for 2 min. The supernatant was separated from any precipitate. This extraction procedure was repeated two or three times with DMF (100-500 μL). The combined supernatant (1500-1800 μL) was analyzed by absorption spectroscopy.

The target in experiment [1] is T1, β-glucosidase from Agrobacterium (Agrobacterium sp., UniProt P12614).
T1 construct: purchased Megazyme; host or cells: recombinant
T1 sequence (P12614 1-459): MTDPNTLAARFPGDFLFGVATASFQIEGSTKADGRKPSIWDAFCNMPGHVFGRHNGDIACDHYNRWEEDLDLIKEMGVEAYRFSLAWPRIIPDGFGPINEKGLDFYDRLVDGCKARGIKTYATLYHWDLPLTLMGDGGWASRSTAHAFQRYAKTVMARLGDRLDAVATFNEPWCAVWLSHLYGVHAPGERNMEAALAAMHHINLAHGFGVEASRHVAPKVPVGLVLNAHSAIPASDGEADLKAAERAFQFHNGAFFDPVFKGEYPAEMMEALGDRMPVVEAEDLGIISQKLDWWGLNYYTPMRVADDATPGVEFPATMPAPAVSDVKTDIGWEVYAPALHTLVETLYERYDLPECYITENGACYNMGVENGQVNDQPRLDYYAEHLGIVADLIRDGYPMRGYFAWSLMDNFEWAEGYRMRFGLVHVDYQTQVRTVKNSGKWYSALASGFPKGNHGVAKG
As to the kind of experiment: Indigogenic reaction with β-glucosidase from Agrobacterium. On the procedure:
Next, the β-glucosidase from Agrobacterium sp. was investigated as the trigger enzyme for indigoid dye formation. […]
Reactions with β-glucosidase from Agrobacterium. An indoxyl compound in DMF (2 μL, 5 mM) and β-glucosidase from Agrobacterium in 10 mM phosphate buffer [2 μL, 10 μM, pH 7.0, containing 50 mM NaCl and 0.6 M (NH4)2SO4] were mixed with 50 mM phosphate buffer (96 μL, pH 7.0). The reaction mixture was incubated at 37° C. for 2 h and then centrifuged for 3 min. Any precipitate was separated from the supernatant and dissolved in DMF (200 μL). The resulting solution was analyzed by absorption spectroscopy. The experiment was repeated three times.

Experiment [2] has as its system β-glucosidase from almonds. As to the kind of experiment: Indigogenic reaction with β-glucosidase from almonds. The source says:
With diverse glucosyl-indoxyl compounds in hand, we carried out a set of studies to examine indigoid-dye formation upon enzymatic cleavage of the glucosyl unit under physiological conditions. Altogether, 14 new (15, 16, 19-27, 30, 33, 41) and 2 known (1, 42) synthetic indoxyl-glucosides (lacking acetyl protecting groups) were examined in an effort to identify suitable combinations of substituents to support both bioconjugation and indigoid dye formation. In initial studies, β-glucosidase from almonds was employed to trigger indigoid dye formation (Table 1). Thus, a mixture of this enzyme (1 unit/mL) and an indoxyl β-glucoside (0.1 μmol, 1 mM) in acetate buffer (pH 5, containing 5% DMF) was incubated at 37° C. for 16-19 h. All indigoid dye was dissolved in each case for quantitative evaluation.
Reactions with β-glucosidase from almonds. An indoxyl compound in DMF (5 μL, 20 mM) and β-glucosidase from almonds in H2O (10 μL, 10 units/mL) were mixed with acetate buffer (85 μL, 50 mM, pH 5.0). The reaction mixture was incubated at 37° C. for 16-19 h and then allowed to cool to room temperature. DMF (300 μL for the reactions of 15, 16, 1, 19, 22, and 25; or 900 μL for the reactions of 42, 20, 21, 23, 24, 26, 27, 30, and 31, respectively) was added to dissolve any indigoid precipitate. The resulting solution was analyzed by absorption spectroscopy.

In experiment [3] the target is T1, β-glucosidase from Agrobacterium. As to the kind of experiment: Enzyme-triggered oligomerization of bis(indoxyl-glucoside) 46. On the procedure:
Oligomerization of 46 was carried out by treatment with β-glucosidase from Agrobacterium (200 nM) in 10 mM phosphate buffer (pH 7) at 37° C. for 2-4 h (Scheme 9). Precipitation occurred during the reaction. After centrifugation, the precipitate was separated from the supernatant, washed with H2O, and dried to afford a blue solid.
The efficacy of the indigogenic oligomerization was examined under a variety of conditions. As shown in entries 1-4 in Table 2, the yield of indigoid dye in the supernatant versus precipitate reversed as the concentration of 46 was decreased from 300 to 10 μM, although the total yields were in the range 17-29%. While the reactions in entries 1-4 were carried out in phosphate buffer containing NaCl (0.05 M), those of entries 5 and 6 (with 300 and 50 μM of 46, respectively) were conducted in NaCl-free phosphate buffer. The use of NaCl-free phosphate buffer facilitated extraction of the indigoid dye in the supernatant for analysis.

The mark [4] stands for this setting: as E4 but ε = 2.6 × 10^4 M^-1 cm^-1 measured for 43.
Where [5] appears, read: indoxyl 100 μM, enzyme 200 nM, 0.05 M phosphate buffer pH 7.0, 2% DMF, 37° C., 2 h, n=3, ε = 1.27 × 10^4 M^-1 cm^-1.
[6] abbreviates: indoxyl 1 mM, enzyme 1 unit/mL, acetate buffer pH 5, 5% DMF, 37° C., 16-19 h, ε = 1.27 × 10^4 M^-1 cm^-1 (measured for 4).
The mark [7] stands for this setting: entry 1: [46] 300 μM, 2 h, phosphate buffer containing NaCl (0.05M).
Where [8] appears, read: entry 2: [46] 100 μM, 3 h, phosphate buffer containing NaCl (0.05M).
[9] abbreviates: entry 3: [46] 50 μM, 2 h, phosphate buffer containing NaCl (0.05M), repeated three times.
The mark [10] stands for this setting: entry 4: [46] 10 μM, 4 h, phosphate buffer containing NaCl (0.05M).
The mark [11] stands for this setting: entry 5: [46] 300 μM, 3 h, NaCl-free phosphate buffer containing DMF (0.1-0.6%).
Where [12] appears, read: entry 6: [46] 50 μM, 3 h, NaCl-free phosphate buffer containing DMF (0.1-0.6%).
The mark [13] stands for this setting: as E1 but ε = 2.6 × 10^4 M^-1 cm^-1 measured for 43.

With `COc1nc(Oc2c(Br)cc3[nH]cc(O[C@@H]4O[C@H](CO)[C@@H](O)[C@H](O)[C@H]4O)c3c2Br)nc(N2CCOCC2)n1` [Indoxyl 21, 4,6-Dibromo-5-[(4-methoxy-6-morpholino-1,3,5-triazin-2-yl)oxy]-1H-indole-3-yl β-D-glucopyranoside], the “Yield (%) rat liver homogenate” value with rat liver homogenate was below 5%. Further, the “Yield (%) β-glucosidase from Agrobacterium” value is on record as 31 ± 2% in experiment [1] (setting [4]) and 63 ± 4% in experiment [1] (setting [5]).
Regarding `C#CCOc1ccc2[nH]cc(O[C@@H]3O[C@H](CO)[C@@H](O)[C@H](O)[C@H]3O)c2c1` [Indoxyl 25, 5-Propargyloxy-1H-indol-3-yl β-D-glucopyranoside], the “Yield (%) rat liver homogenate” value in the experiment on rat liver homogenate is 11%. For the same molecule, in experiment [2] (setting [6]), the “Yield (%) β-glucosidase from almonds” value is below 5%. Also, the “Yield (%) β-glucosidase from Agrobacterium” value in experiment [1] (setting [5]) is on record as 37 ± 2%.
As for `C#CCOc1ccc2[nH]cc(O[C@@H]3O[C@H](CO)[C@@H](O)[C@H](O)[C@H]3O)c2c1Br` [Indoxyl 26, 4-Bromo-5-propargyloxy-1H-indol-3-yl β-D-glucopyranoside], in the experiment with rat liver homogenate, the “Yield (%) rat liver homogenate” value amounted to 17%. Further, the “Yield (%) β-glucosidase from almonds” value in experiment [2] (setting [6]) was found to be 56%. Moreover, in experiment [1] (setting [5]), the “Yield (%) β-glucosidase from Agrobacterium” value is reported as 79 ± 1%.
In the case of `O=S(=O)([O-])CCC[N+]1(CCCO)CCN(c2nc(OCCOCCOCCOc3c(Br)cc4[nH]cc(O[C@@H]5O[C@H](CO)[C@@H](O)[C@H](O)[C@H]5O)c4c3Br)nc(OCCOCCOCCOc3c(Br)cc4[nH]cc(O[C@@H]5O[C@H](CO)[C@@H](O)[C@H](O)[C@H]5O)c4c3Br)n2)CC1` [Indoxyl 46], the “Total yields of indigoid dye (supernatant plus precipitate)” value in experiment [3] (entries 1-4, [46] 300 to 10 μM) is given as 17-29%. In addition, the “Yield of indigoid dye (%) precipitate” value in experiment [3] (setting [7]) was 11%; in experiment [3] (setting [8]) it was 14%; in experiment [3] (setting [9]), 16 ± 0.6^c %; in experiment [3] (setting [10]) it was 6%; in experiment [3] (setting [11]), 13%; in experiment [3] (setting [12]) it was 8%. Besides, the “Yield of indigoid dye (%) supernatant” value is given as 6% in experiment [3] (setting [7]); 10% in experiment [3] (setting [8]); 13 ± 0.4^c % in experiment [3] (setting [9]); 22% in experiment [3] (setting [10]); 13% in experiment [3] (setting [11]); 19% in experiment [3] (setting [12]).
As for `OC[C@H]1O[C@@H](Oc2c[nH]c3cc(Br)c(OCC4[C@H]5CCC#CCC[C@@H]45)c(Br)c23)[C@H](O)[C@@H](O)[C@@H]1O` (stereo partly drawn) [Indoxyl 30, 5-{[(1R,8S,9s)-Bicyclo[6.1.0]non-4-yn-9-yl]methoxy}-4,6-dibromo-1H-indole-3-yl β-D-glucopyranoside], the “Yield (%) β-glucosidase from Agrobacterium” value in experiment [1] (setting [4]) was 10% and 10 ± 0.4%; in experiment [1] (setting [5]), 21 ± 1%.
Turning to `C#CCOc1c(Br)cc2[nH]cc(O[C@@H]3O[C@H](CO)[C@@H](O)[C@H](O)[C@H]3O)c2c1Br` [Indoxyl 27, 4,6-Dibromo-5-propargyloxy-1H-indol-3-yl β-D-glucopyranoside], the “Yield (%) rat liver homogenate” value with rat liver homogenate stood at 50%. Also, the “Yield (%) β-glucosidase from almonds” value in experiment [2] (setting [13]) was found to be 51%; in experiment [2] (setting [6]) it was 105%. Moreover, the “Yield (%) β-glucosidase from Agrobacterium” value was 89 ± 2% in experiment [1] (setting [4]) and 184 ± 3% in experiment [1] (setting [5]).
In the case of `COc1nc(Oc2ccc3[nH]cc(O[C@@H]4O[C@H](CO)[C@@H](O)[C@H](O)[C@H]4O)c3c2Br)nc(N2CCOCC2)n1` [Indoxyl 20, 4-Bromo-5-[(4-methoxy-6-morpholino-1,3,5-triazin-2-yl)oxy]-1H-indole-3-yl β-D-glucopyranoside], in the experiment with rat liver homogenate, the “Yield (%) rat liver homogenate” value is below 5%. For the same molecule, in experiment [1] (setting [5]), the “Yield (%) β-glucosidase from Agrobacterium” value is on record as 150 ± 3%.
Regarding “5-bromo-4-chloroindoxyl β-glucoside [Indoxyl 42, reference compound]”, the “Yield (%) rat liver homogenate” value in the experiment on rat liver homogenate was determined as 65%. Moreover, the “Yield (%) β-glucosidase from almonds” value in experiment [2] (as E1 but ε = 2.00 × 10^4 M^-1 cm^-1 reported for 5,5′-dibromo-4,4′-dichloroindigo) was 74% and 74^e %. For the same molecule, in experiment [1] (as E4 but ε = 2.00 × 10^4 M^-1 cm^-1 reported for 5,5′-dibromo-4,4′-dichloroindigo), the “Yield (%) β-glucosidase from Agrobacterium” value is 116% and 116 ± 8^e %.
As for `COC(=O)COc1ccc2[nH]cc(O[C@@H]3O[C@H](CO)[C@@H](O)[C@H](O)[C@H]3O)c2c1Br` [Indoxyl 23, 4-Bromo-5-(methoxycarbonyl)methoxy-1H-indol-3-yl β-D-glucopyranoside], in the experiment with rat liver homogenate, the “Yield (%) rat liver homogenate” value is below 5%. Also, the “Yield (%) β-glucosidase from almonds” value in experiment [2] (setting [6]) stood at 68%. For the same molecule, in experiment [1] (setting [5]), the “Yield (%) β-glucosidase from Agrobacterium” value came to 84 ± 4%.
Consider `COC(=O)COc1c(Br)cc2[nH]cc(O[C@@H]3O[C@H](CO)[C@@H](O)[C@H](O)[C@H]3O)c2c1Br` [Indoxyl 24, 4,6-Dibromo-5-(methoxycarbonyl)methoxy-1H-indol-3-yl β-D-glucopyranoside], for which, in the experiment with rat liver homogenate, the “Yield (%) rat liver homogenate” value was below 5%. For the same molecule, the “Yield (%) β-glucosidase from almonds” value in experiment [2] (setting [13]) was 59%; in experiment [2] (setting [6]) it was 122%. Further, the “Yield (%) β-glucosidase from Agrobacterium” value in experiment [1] (setting [4]) was 102 ± 3%; in experiment [1] (setting [5]) it was 209 ± 6%.
As for `COC(=O)COc1ccc2[nH]cc(O[C@@H]3O[C@H](CO)[C@@H](O)[C@H](O)[C@H]3O)c2c1` [Indoxyl 22, 5-(Methoxycarbonyl)methoxy-1H-indol-3-yl β-D-glucopyranoside], the “Yield (%) rat liver homogenate” value in the experiment with rat liver homogenate is below 5%. For the same molecule, in experiment [2] (setting [6]), the “Yield (%) β-glucosidase from almonds” value is recorded as below 1%. Besides, the “Yield (%) β-glucosidase from Agrobacterium” value in experiment [1] (setting [5]) is reported as 30 ± 6%.

(Values after patent publication US20220267479A1, “POLYIODIDE BINDING COMPOUNDS AND METHODS OF USE THEREOF” (North Carolina State University, priority 2019, published 2022).)
